Assay [1] has as its system PC-3 (a prostate cancer cell line). Description: In-vitro cell viability assay (CellTiter-Glo). The format is cell-based. (In ATP-based viability assays light output follows the ATP content of the culture.)
Assay [2] relates to SUM190PT (a breast cancer cell line). Briefly: In-vitro cell viability assay (CellTiter-Glo). The format is cell-based.
Assay [3] concerns bladder cancer xenograft model (BL9200). Briefly: HuPrime bladder cancer xenograft model (BL9200) in NOD/SCID mice. The format is in vivo, NOD/SCID strain female mice. The following applies: for Tumor Volume (mean ± SEM), Day 25: number of mice in brackets.
Another assay concerns T47D human breast cancer. Briefly: Xenograft model of T47D human breast cancer (xxT47D) in BALB/c nude mice. The format is in vivo, female BALB/c nude mice. The following applies: 50 mg/kg p.o. QD x 4 weeks. On the technique in general: Xenograft models place foreign cells or tissue in a host animal.
For assay [4], the system named is T47D (a breast cancer cell line). Briefly: cells. The note with it: Homo sapiens.
Protocol: Specifically, the cell lines described in Table 5 were seeded per well in a 96-well plate and incubated at room temperature (37°C, 5% CO2). After 24 hours, the cells were treated with 100 µL of payload compounds or ADC drugs at 9 concentrations (a 4-fold serial dilution starting from 1,000 nM). In particular, a control group (drug concentration 0), which is an untreated group, was also prepared. After 6 days of incubation (37°C, 5% CO2), 100 µL of CellTiter-Glo reagent (CellTiter-Glo® Luminescent Cell Viability Assay kit (Promega, G7571)) was added to each well and pipetted. Fluorescence was measured after incubation at room temperature (RT) for 10 minutes.

The term IC50 denotes the concentration that inhibits the measured activity by half. As for `CC[C@@]1(O)C(=O)OCc2c1cc1n(c2=O)Cc2c-1nc1cc(F)c(C)c3c1c2[C@@H](N)CC3` [Exatecan, reference compound], the IC50 in assay [1] is 0.62 nM; in assay [2], 2.3 nM.
“PADCEV: ADC in which anti-Nectin4 mAb and MMAE are linked by an mc-vc-PAB linker [reference compound]”: in assay [3] (5 mg/kg i.v. QW × 3wks), the “TGI (%), Day 25” value is 108.4%; the “ΔT/ΔC (%), Day 25” value is -8.4%; the “Tumor Volume (mean ± SEM), Day 25” value is 27.26 +/- 2.75(10) mm^3. Also, in assay [3] (10 mg/kg i.v. QW × 3wks), the “TGI (%), Day 25” value amounted to 109.4%; the “ΔT/ΔC (%), Day 25” value is recorded as -9.4%; the “Tumor Volume (mean ± SEM), Day 25” value is 11.07 +/- 3.12(10) mm^3.
`CC(=O)c1c(C)c2cnc(Nc3ccc(N4CCNCC4)cn3)nc2n(C2CCCC2)c1=O` [Palbociclib]: the “Tumor Weight (g) on Day 28, mean ± SEM” value in the assay on T47D human breast cancer came to 0.396 ± 0.047 g. Besides, the “Tumor Volume (mm^3), mean ± SEM” value came out at 249 ± 17 mm^3 in the assay on T47D human breast cancer (day 3); 290 ± 22 mm^3 with T47D human breast cancer (day 7); 328 ± 23 mm^3 in the assay with T47D human breast cancer (day 10); 342 ± 26 mm^3 in the assay on T47D human breast cancer (day 14); 344 ± 29 mm^3 with T47D human breast cancer (day 17); 360 ± 36 mm^3 in the assay with T47D human breast cancer (day 21). Also, the “Tumor Volume (mm^3), mean ± SEM” value in the assay on T47D human breast cancer (day 24) turned out to be 384 ± 42 mm^3; with T47D human breast cancer (day 28), 407 ± 49 mm^3. Moreover, the “T/Cweight (%)” value in the assay on T47D human breast cancer (day 28) worked out at 41.79%. Further, in the assay with T47D human breast cancer (day 28), the “TGI (%)” value turned out to be 70.93%. Moreover, the “T/C (%)” value with T47D human breast cancer (tumor volume day 28 vs control G1) is reported as 43.63%.
For `CC[C@@]1(O)C(=O)OCc2c1cc1n(c2=O)Cc2c-1nc1cc3c(c4c1c2[C@@H](NC(=O)[C@@H](C)O)CC4)OCO3` [PBX-7016], the results for the IC50 in assay [1], in assay [2] and in assay [4] were 3.51 nM, 9.4 nM and 0.47 nM, respectively.

(Values after EP4796129A1, “ANTI-NECTIN-4 ANTIBODY-DRUG CONJUGATE COMPRISING CAMPTOTHECIN DERIVATIVE” (Celltrion, Inc., priority 2023, dated 2025).)
